Experimental data as given in patent US20020165233A1, “Quinoxaline containing medicaments for post exposure prophylaxis of an HIV infection” (priority 1999, published 2002).
Entries after “also recorded” stand apart in the source; their conditions may differ.

What was measured:
[1] = design: species or system rhesus monkeys; conditions: rhesus monkey, in vivo, sc, 15 mg/kg
Procedure: (§1) Nine rhesus monkeys (male, 2 years old, 2-3 kg) were seronegative for SIV, Simian T cell Leukemia Virus (STLV), B virus and Type D retroviruses. 15 mg/kg body weight of COMPOUND A was subcutaneously administered into animals twice a day (12 h interval) for 28 d. Animals were divided into three groups. All animals were intravenously administered with 100 TCID50 of RT-SHIV The first group consisted of three animals treated with COMPOUND A from 8 h post exposure for 28 d. The second group of animals was treated with COMPOUND A from 24 h post exposure for 28 d. The third group (control) received the solvent that was used to dissolve COMPOUND A (PEG400:glycerol:water=[…]) from 8 h post exposure for 28 d.
(§2) Blood was collected from all the animals either just before or 2 h after the drug administration on 0, 3, 7, 10, 14, 21, 29 d post exposure in order to check the drug concentration, otherwise in intervals of 2 to 8 weeks. Biopsy of inguinal lymph nodes was conducted on 17 d or 18 d and 8 weeks post exposure in two animals per group. Cerebrospinal fluid (CSF) was collected from the animals just before biopsy.
Determination of COMPOUND A Concentration in Plasma and CSF:
Blood was collected from all animals just before or 2 h after drug administration to check trough (lowest) or highest blood concentration of the drug. COMPOUND A concentration in CSF was determined by HPLC.

RT-SHIV [2] = experiment: RT-SHIV proviral DNA in PBMC and LNMC (quantitative PCR); type: in vivo, rhesus monkeys; conditions: for RT-SHIV proviral DNA in LNMC: 8 w p.e.
Procedure: as §1, §2
T-SHIV DNA Amount in Peripheral Blood Mononuclear Cells (PBMC) and Lymph Node Cells (LNC):
PBMC were separated by Ficoll-Hypaque gradient centrifugation. Cellular DNA was purified from 1×10^6 cells with a commercial DNA purification kit (Qiagen). Gag sequence of viral DNA was PCR amplified with the primers SG05i and SG06i. Nested PCR amplification with two sets of primers, i.e. F34C (nt. 9065 to 9082)(5′-CCTACCTACAATATGGGT-3′) and F35C (nt. 9800 to 9778)(5′-[…]-3′), the second primers: N3 (nt. 9182 to 9201)(5′-GMGATGGATACTCGCAATC-3′) and N4, (nt. 9552 to 9533)(5′-TMTCCTGCCAATCTGGTAT-3′) was performed to detect one copy per 100,000 cells. Detection and quantitative determination of the viral DNA copy number was conducted as described for plasma viral load. The cell numbers of PBMC and LNC were estimated by imaging analysis of cyber green-stained chromosomal DNA separated by agarose gel electrophoresis.
The detection limit was 1 copy DNA per 100,000 cells. In contrast to the untreated animals, the proviral DNA levels were very low in the treated groups.

RT-SHIV [3] = experiment: Plasma viral load (quantitative RNA PCR) after post-exposure prophylaxis; type: in vivo, rhesus monkeys
Procedure: as §1, §2
Determination of Plasma Viral Load:
Viral RNA was purified from plasma with a commercial viral RNA isolation kit (Boehringer Mannheim). Gag cDNA was PCR amplified with a commercial RNA PCR kit (Boehringer Mannheim) with the gag primers SG05i (5′-ACTGCTGATTCAAAATGCiMCC-3′), SG06i (5′-CTACTGGTCTiCTCCAAAGAGAGAATTG-3′) according to the protocol by Piatak et al. (Biotechniques 14, 70-81-1993) with modifications. Amplified gag DNA was separated by 2% agarose electrophoresis and cyber green stained DNA was analyzed with a fluorescence image analyzer (FLA2000, Fuji Photo Film). Quantitative determination of the viral RNA copy number was calculated using external standards.

RT-SHIV [4] = experiment: Anti-SIV ELISA (humoral response); type: in vivo, rhesus monkeys
Procedure: as §1
1:100 fold diluted plasma was assayed with ELISA plates coated with SIVmac239 virion lysate. Antibody titer was monitored by measuring the absorbance at 492 nm.

RT-SHIV [5] = experiment: env specific cell proliferation assay; type: in vivo, rhesus monkeys
Procedure: as §1
Cell Proliferation Assay:
The method used was described previously [J. Virol, 1996: 70, 678-681]. In brief, PBMC was thawed and incubated as described in the CTL assay. Triplicates of PBMC (4×10^5) cells were incubated with autologous B-LCL (1×10^5) that had been infected with SIV env-rvv or control vv and fixed with 1.5% paraformaldehyde in phosphate buffered saline (PBS). ^3H-thymidine was added to 8 h before harvesting. The incorporation of ^3H-thymidine was measured by liquid scintillation counting. The stimulation index was calculated as (mean c.p.m. of PBMC cultured with env-rvv/mean c.p.m. of PBMC cultured with control vv).

[6] = design: species or system rhesus monkeys; conditions: rhesus monkey, in vivo, sc, 15 mg/kg; remark: listed apart in the source
Procedure: as §1

## CC[C@H]1C(=O)Nc2ccc(F)cc2N1C(=O)OC(C)C [Compound A, (3S)-ethyl-6-fluoro-4-isopropyloxycarbonyl-3,4-dihydroquinoxalin-2(1H)-one]
[1]
  concentration in cerebral spinal fluid (CSF) relative to blood: approximately one tenth
  minimum level of the drug: higher than the effective minimal concentration
  trough concentration relative to the IC90 value: 3 fold
RT-SHIV [2]; animal #1, treated 8h thru 28 dpi, 2 w p.e.
  RT-SHIV proviral DNA in PBMC: 0 viral DNA copies/100,000 cells
RT-SHIV [2]; animal #1, treated 8h thru 28 dpi, 4 w p.e.
  RT-SHIV proviral DNA in PBMC: 0 viral DNA copies/100,000 cells
RT-SHIV [2]; animal #1, treated 8h thru 28 dpi, 15 w p.e.
  RT-SHIV proviral DNA in PBMC: 1 viral DNA copies/100,000 cells
RT-SHIV [2]; animal #1, treated 8h thru 28 dpi, 40 w p.e.
  RT-SHIV proviral DNA in PBMC: 0 viral DNA copies/100,000 cells
RT-SHIV [2]; animal #1, treated 8h thru 28 dpi, 50 w p.e.
  RT-SHIV proviral DNA in PBMC: 0 viral DNA copies/100,000 cells
RT-SHIV [2]; animal #3, treated 24 h thru 28 d pi, 2 w p.e.
  RT-SHIV proviral DNA in PBMC: 0 viral DNA copies/100,000 cells
RT-SHIV [2]; animal #3, treated 24 h thru 28 d pi, 4 w p.e.
  RT-SHIV proviral DNA in PBMC: 0 viral DNA copies/100,000 cells
RT-SHIV [2]; animal #3, treated 24 h thru 28 d pi, 15 w p.e.
  RT-SHIV proviral DNA in PBMC: 16 viral DNA copies/100,000 cells
RT-SHIV [2]; animal #3, treated 24 h thru 28 d pi, 40 w p.e.
  RT-SHIV proviral DNA in PBMC: 0 viral DNA copies/100,000 cells
RT-SHIV [2]; animal #3, treated 24 h thru 28 d pi, 50 w p.e.
  RT-SHIV proviral DNA in PBMC: 2 viral DNA copies/100,000 cells
RT-SHIV [2]; animal #4, treated 24 h thru 28 d pi, 2 w p.e.
  RT-SHIV proviral DNA in PBMC: 0 viral DNA copies/100,000 cells
RT-SHIV [2]; animal #4, treated 24 h thru 28 d pi, 4 w p.e.
  RT-SHIV proviral DNA in PBMC: 0 viral DNA copies/100,000 cells
RT-SHIV [2]; animal #4, treated 24 h thru 28 d pi
  RT-SHIV proviral DNA in LNMC: 1 viral DNA copies/100,000 cells
RT-SHIV [2]; animal #4, treated 24 h thru 28 d pi, 15 w p.e.
  RT-SHIV proviral DNA in PBMC: 0 viral DNA copies/100,000 cells
RT-SHIV [2]; animal #4, treated 24 h thru 28 d pi, 40 w p.e.
  RT-SHIV proviral DNA in PBMC: 0 viral DNA copies/100,000 cells
RT-SHIV [2]; animal #4, treated 24 h thru 28 d pi, 50 w p.e.
  RT-SHIV proviral DNA in PBMC: 0 viral DNA copies/100,000 cells
RT-SHIV [2]; animal #5, treated 8h thru 28 dpi, 2 w p.e.
  RT-SHIV proviral DNA in PBMC: 0 viral DNA copies/100,000 cells
RT-SHIV [2]; animal #5, treated 8h thru 28 dpi, 4 w p.e.
  RT-SHIV proviral DNA in PBMC: 0 viral DNA copies/100,000 cells
RT-SHIV [2]; animal #5, treated 8h thru 28 dpi
  RT-SHIV proviral DNA in LNMC: 2 viral DNA copies/100,000 cells
RT-SHIV [2]; animal #5, treated 8h thru 28 dpi, 15 w p.e.
  RT-SHIV proviral DNA in PBMC: 0 viral DNA copies/100,000 cells
RT-SHIV [2]; animal #5, treated 8h thru 28 dpi, 40 w p.e.
  RT-SHIV proviral DNA in PBMC: 0 viral DNA copies/100,000 cells
RT-SHIV [2]; animal #5, treated 8h thru 28 dpi, 50 w p.e.
  RT-SHIV proviral DNA in PBMC: 0 viral DNA copies/100,000 cells
RT-SHIV [2]; animal #10, treated 8h thru 28 dpi, 2 w p.e.
  RT-SHIV proviral DNA in PBMC: 0 viral DNA copies/100,000 cells
RT-SHIV [2]; animal #10, treated 8h thru 28 dpi, 4 w p.e.
  RT-SHIV proviral DNA in PBMC: 0 viral DNA copies/100,000 cells
RT-SHIV [2]; animal #10, treated 8h thru 28 dpi, 15 w p.e.
  RT-SHIV proviral DNA in PBMC: 7 viral DNA copies/100,000 cells
RT-SHIV [2]; animal #10, treated 8h thru 28 dpi, 40 w p.e.
  RT-SHIV proviral DNA in PBMC: 1 viral DNA copies/100,000 cells
RT-SHIV [2]; animal #10, treated 8h thru 28 dpi, 50 w p.e.
  RT-SHIV proviral DNA in PBMC: 5 viral DNA copies/100,000 cells
RT-SHIV [2]; animal #11, treated 24 h thru 28 d pi, 2 w p.e.
  RT-SHIV proviral DNA in PBMC: 0 viral DNA copies/100,000 cells
RT-SHIV [2]; animal #11, treated 24 h thru 28 d pi, 4 w p.e.
  RT-SHIV proviral DNA in PBMC: 0 viral DNA copies/100,000 cells
RT-SHIV [2]; animal #11, treated 24 h thru 28 d pi, 15 w p.e.
  RT-SHIV proviral DNA in PBMC: 1 viral DNA copies/100,000 cells
RT-SHIV [2]; animal #11, treated 24 h thru 28 d pi, 40 w p.e.
  RT-SHIV proviral DNA in PBMC: 0 viral DNA copies/100,000 cells
RT-SHIV [2]; animal #11, treated 24 h thru 28 d pi, 50 w p.e.
  RT-SHIV proviral DNA in PBMC: 0 viral DNA copies/100,000 cells
RT-SHIV [2]; treated groups versus untreated animals
  proviral DNA levels (persistent infection) in treated groups relative to untreated: very low; also recorded: far lower level of persistent infection
RT-SHIV [3]; 4 weeks after cessation of treatment
  animals with a short active viral replication: 50 % of the animals
RT-SHIV [3]; during the treatment and the following 3 weeks, all treated animals
  viral replication (plasma viral RNA, proviral DNA, infectious cells in PBMC): inhibited at a level below the sensitivity of the assays
RT-SHIV [3]; plasma viral RNA, proviral DNA and QVI methods
  viral infection in animal #5: no viral infection was observed
RT-SHIV [3]; rhesus macaques
  duration of immune-system assisted control following exposure: at least 40 weeks
RT-SHIV [3]; subsequent to active replication around 10 weeks, up to 40 weeks post exposure, RNA PCR detection level
  viral replication (plasma viral RNA level): ≤ 1000 copy/ml
RT-SHIV [4]; ELISA against SIV virion proteins, untreated sero-positive at 4 weeks
  induction of humoral response against RT-SHIV: delayed induction of humoral response
RT-SHIV [4]; at 11 weeks post exp.
  treated animals sero-positive: Two of six
RT-SHIV [4]; late course
  humoral response of animal #5: eventually lost its humoral response
RT-SHIV [5]; all treated animals versus untreated group
  proliferative response at week 40: levels higher than those of the untreated group
RT-SHIV [5]; all treated animals, 3 weeks through 40 weeks post exposure, versus untreated
  env specific proliferative responses: Significantly higher
[6]
  adverse effect: without any adverse effect
